Data published in patent publication US8383618B2, “C2-fluoro substituted piperazine linked pyrrolo[2,1-C][1,4] benzodiazepine dimers and a process for the preparation thereof” (Council of Scientific & Industrial Research, priority 2008, dated 2013).

Experiments:
calf thymus (CT) DNA = experiment: Thermal denaturation studies; type: binding; conditions: [PBD]:[DNA] molar ratio 1:5; CT-DNA 100 μM, ligand 20 μM; sodium phosphate buffer pH 7.00
Method: The DNA binding affinity of the C2-Fluoro substituted piperazine linked pyrrolo[2,1c][1,4]benzodiazepine dimers were subjected to thermal denaturation studies using calf thymus (CT) DNA (Jones, G. B.; Davey, C. L.; Jenkins, T. C.; Kamal, A.; Kneale, G. G.; Neidle, S.; Webster, G. D.; Thurston, D. E. Anti-cancer Drug Des. 1990, 5, 249. McConnaughie, A. W.; Jenkins, T. C. J. Med. Chem. 1995, 38, 3488). The studies for these compounds (IXa-f) were carried out by DNA/ligand molar ratio is 1:5 the increase in the helix melting temperature (ΔTm) for each compound was examined at 0 h. […] Data for DSB-120 and SJG-136 are included in Table-3 for comparison. The synthetic DC-81 dimer (DSB-120) gives a ΔTm 10.2° C. and SJC-136 gives a […]Tm of 25° C. under identical experimental condition.

[1] = test system: sixty human tumor cells derived from nine cancer types; experiment: NCI in vitro anticancer screen (SRB), whole panel; type: cell-based
Method: (§1) The above compounds were evaluated for in vitro anticancer activity against sixty human tumor cells derived from nine cancer types (leukemia, non small cell cancer, colon cancer CNS cancer, melanoma, ovarian cancer renal cancer, prostate cancer and breast cancer) as per NCI protocol. For each compound, dose response curves for each cell line were measured at a minimum of five concentrations at 10-fold dilution. A protocol of 48 h continuous drug exposure was used, and a sulforhodamine B (SRB) protein assay was used to estimate cell viability or growth. The concentration causing 50% cell growth inhibition (GI50), total cell growth inhibition (TGI, 0% growth) and 50% cell death (LC-50% growth) compared with the control was calculated.

K-562 = experiment: NCI in vitro anticancer screen (SRB); type: cell-based, human; conditions: Leukemia, 48 h exposure
Method: as §1

HOP-62 = experiment: NCI in vitro anticancer screen (SRB); type: cell-based, human; conditions: Non-small cell lung, 48 h exposure
Method: as §1

MDA-MB-435 = experiment: NCI in vitro anticancer screen (SRB); type: cell-based, human; conditions: Breast, 48 h exposure
Method: as §1

SNB-75 = experiment: NCI in vitro anticancer screen (SRB); type: cell-based, human; conditions: CNS, 48 h exposure
Method: as §1

IGROV1 = experiment: NCI in vitro anticancer screen (SRB); type: cell-based, human; conditions: Ovarian, 48 h exposure
Method: as §1

SF-539 = experiment: NCI in vitro anticancer screen (SRB); type: cell-based, human; conditions: CNS, 48 h exposure
Method: as §1

LOX IMVI = experiment: NCI in vitro anticancer screen (SRB); type: cell-based, human; conditions: Melanoma, 48 h exposure
Method: as §1

SNB-19 = experiment: NCI in vitro anticancer screen (SRB); type: cell-based, human; conditions: CNS, 48 h exposure
Method: as §1

U251 = experiment: NCI in vitro anticancer screen (SRB); type: cell-based, human; conditions: CNS, 48 h exposure
Method: as §1

MALME-3M = experiment: NCI in vitro anticancer screen (SRB); type: cell-based, human; conditions: Melanoma, 48 h exposure
Method: as §1

MDA-MB-468 = experiment: NCI in vitro anticancer screen (SRB); type: cell-based, human; conditions: Breast, 48 h exposure
Method: as §1

DU-145 = experiment: NCI in vitro anticancer screen (SRB); type: cell-based, human; conditions: Prostate, 48 h exposure
Method: as §1

COLO 205 = experiment: NCI in vitro anticancer screen (SRB); type: cell-based, human; conditions: Colon, 48 h exposure
Method: as §1

A498 = experiment: NCI in vitro anticancer screen (SRB); type: cell-based, human; conditions: Renal, 48 h exposure
Method: as §1

M14 = experiment: NCI in vitro anticancer screen (SRB); type: cell-based, human; conditions: Melanoma, 48 h exposure
Method: as §1

HOP-92 = experiment: NCI in vitro anticancer screen (SRB); type: cell-based, human; conditions: Non-small cell lung, 48 h exposure
Method: as §1

NCI-H522 = experiment: NCI in vitro anticancer screen (SRB); type: cell-based, human; conditions: Non-small cell lung, 48 h exposure
Method: as §1

SR = experiment: NCI in vitro anticancer screen (SRB); type: cell-based, human; conditions: Leukemia, 48 h exposure
Method: as §1

HCT-116 = experiment: NCI in vitro anticancer screen (SRB); type: cell-based, human; conditions: Colon, 48 h exposure
Method: as §1

PC-3 = experiment: NCI in vitro anticancer screen (SRB); type: cell-based, human; conditions: Prostate, 48 h exposure
Method: as §1

SF-268 = experiment: NCI in vitro anticancer screen (SRB); type: cell-based, human; conditions: CNS, 48 h exposure
Method: as §1

SK-MEL-5 = experiment: NCI in vitro anticancer screen (SRB); type: cell-based, human; conditions: Melanoma, 48 h exposure
Method: as §1

SN12C = experiment: NCI in vitro anticancer screen (SRB); type: cell-based, human; conditions: Renal, 48 h exposure
Method: as §1

NCI-H23 = experiment: NCI in vitro anticancer screen (SRB); type: cell-based, human; conditions: Non-small cell lung, 48 h exposure
Method: as §1

RPMI-8226 = experiment: NCI in vitro anticancer screen (SRB); type: cell-based, human; conditions: Leukemia, 48 h exposure
Method: as §1

MOLT-4 = experiment: NCI in vitro anticancer screen (SRB); type: cell-based, human; conditions: Leukemia, 48 h exposure
Method: as §1

T-47D = experiment: NCI in vitro anticancer screen (SRB); type: cell-based, human; conditions: Breast, 48 h exposure
Method: as §1

CCRF-CEM = experiment: NCI in vitro anticancer screen (SRB); type: cell-based, human; conditions: Leukemia, 48 h exposure
Method: as §1

MCF7 = experiment: NCI in vitro anticancer screen (SRB); type: cell-based, human; conditions: Breast, 48 h exposure
Method: as §1

HS 578T = experiment: NCI in vitro anticancer screen (SRB); type: cell-based, human; conditions: Breast, 48 h exposure
Method: as §1

SW-620 = experiment: NCI in vitro anticancer screen (SRB); type: cell-based, human; conditions: Colon, 48 h exposure
Method: as §1

HL-60(TB) = experiment: NCI in vitro anticancer screen (SRB); type: cell-based, human; conditions: Leukemia, 48 h exposure
Method: as §1

SK-MEL-28 = experiment: NCI in vitro anticancer screen (SRB); type: cell-based, human; conditions: Melanoma, 48 h exposure
Method: as §1

SK-OV-3 = experiment: NCI in vitro anticancer screen (SRB); type: cell-based, human; conditions: Ovarian, 48 h exposure
Method: as §1

NCI-H460 = experiment: NCI in vitro anticancer screen (SRB); type: cell-based, human; conditions: Non-small cell lung, 48 h exposure
Method: as §1

BT-549 = experiment: NCI in vitro anticancer screen (SRB); type: cell-based, human; conditions: Breast, 48 h exposure
Method: as §1

SK-MEL-2 = experiment: NCI in vitro anticancer screen (SRB); type: cell-based, human; conditions: Melanoma, 48 h exposure
Method: as §1

UACC-62 = experiment: NCI in vitro anticancer screen (SRB); type: cell-based, human; conditions: Melanoma, 48 h exposure
Method: as §1

CAKI-1 = experiment: NCI in vitro anticancer screen (SRB); type: cell-based, human; conditions: Renal, 48 h exposure
Method: as §1

OVCAR-3 = experiment: NCI in vitro anticancer screen (SRB); type: cell-based, human; conditions: Ovarian, 48 h exposure
Method: as §1

786-0 = experiment: NCI in vitro anticancer screen (SRB); type: cell-based, human; conditions: Renal, 48 h exposure
Method: as §1

[2] = human tumor cell lines, 48 h drug exposure, SRB

For “1,1′-{[(bisbutane-1,N-diyl)piperazine]dioxy}bis[(11aS)-2-fluoro-7-methoxy-1,2,3,11a-tetrahydro-5H-pyrrolo[2,1-c][1,4]benzodiazepine-5-one] [IXb]”, the “ΔTm after incubation at 37° C. for 0 h” value (calf thymus (CT) DNA) was 38.0 °C.
In the case of “1,1′-{[(bispentane-1,N-diyl)piperazine]dioxy}bis[(11aS)-2-fluoro-7-methoxy-1,2,3,11a-tetrahydro-5H-pyrrolo[2,1-c][1,4]benzodiazepine-5-one] [IXc]”, the “ΔTm after incubation at 37° C. for 0 h” value (calf thymus (CT) DNA) is reported as 37.0 °C.
`COc1cc2c(cc1OCCCN1CCN(CCCOc3cc4c(cc3OC)C(=O)N3CC(F)C[C@H]3C=N4)CC1)N=C[C@@H]1CC(F)CN1C2=O` (stereo partly drawn) [Compound IXa, 1,1′-{[(bispropane-1,N-diyl)piperazine]dioxy}bis[(11aS)-2-fluoro-7-methoxy-1,2,3,11a-tetrahydro-5H-pyrrolo[2,1-c][1,4]benzodiazepine-5-one]] was tested, and the “ΔTm after incubation at 37° C. for 0 h” value (calf thymus (CT) DNA) was 37.0 °C, the GI50 ([1]; against fifty nine cell lines in nine cell panels) was less than 95 nM and the “Log10 GI50 mean graph midpoint (MG_MID)” value [1, 2] was −7.28. The “Log10 LC50 mean graph midpoint (MG_MID)” value [1, 2] was −4.65, the “Log10 TGI mean graph midpoint (MG_MID)” value [1, 2] was −6.12 and the GI50 (K-562) was 15 nM. The GI50 (HOP-62) was 12 nM, the GI50 (MDA-MB-435) was 34 nM and the GI50 (SNB-75) was 33 nM. The GI50 (IGROV1) was 59 nM, the GI50 (SF-539) was 11 nM and the GI50 (LOX IMVI) was 17 nM. The GI50 (SNB-19) was 28 nM, the GI50 (U251) was 15 nM and the GI50 (MALME-3M) was 24 nM. It also gave a GI50 (MDA-MB-468) of 10 nM, a GI50 (DU-145) of 47 nM and a GI50 (COLO 205) of 40 nM. It also gave a GI50 (A498) of 66 nM, a GI50 (M14) of 35 nM and a GI50 (HOP-92) of 96 nM. It also gave a GI50 (NCI-H522) of 10 nM, a GI50 (SR) of 10 nM and a GI50 (HCT-116) of 28 nM. The GI50 (PC-3) was 15 nM, the GI50 (SF-268) was 11 nM and the GI50 (SK-MEL-5) was 31 nM. For the same compound, the GI50 (SN12C) was 18 nM, the GI50 (NCI-H23) was 32 nM and the GI50 (RPMI-8226) was 22 nM. The GI50 (MOLT-4) was 10 nM, the GI50 (T-47D) was 13 nM and the GI50 (CCRF-CEM) was 10 nM. For the same compound, the GI50 (MCF7) was 10 nM, the GI50 (HS 578T) was 48 nM and the GI50 (SW-620) was 56 nM. The GI50 (HL-60(TB)) was 10 nM, the GI50 (SK-MEL-28) was 31 nM and the GI50 (SK-MEL-28; listed as IX a) was 43 nM. It also gave a GI50 (SK-OV-3) of 70 nM, a GI50 (NCI-H460) of 10 nM and a GI50 (BT-549) of 95 nM. The GI50 (SK-MEL-2) was 43 nM, the GI50 (UACC-62) was 26 nM and the GI50 (CAKI-1) was 28 nM. The GI50 (OVCAR-3) was 48 nM and the GI50 (786-0) was 39 nM.
In the case of `COc1cc2c(cc1OCCCOc1cc3c(cc1OC)C(=O)N1CCC[C@H]1C=N3)N=C[C@@H]1CCCN1C2=O` [DSB-120, reference compound], the “ΔTm after incubation at 37° C. for 0 h” value (calf thymus (CT) DNA) is reported as 10.2 °C.
